Experimental data published in ChEMBL document CHEMBL1201862, “PubChem BioAssay data set” (2004).
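Interpolation was linear, between the two tested concentrations surrounding the appropriate level; five concentrations were tested over 48 hours in 96-well plates. GI50 = concentration required for 50% inhibition of growth.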 Activity calls are given as the source filed them. No stated cut-off is given here; in the data, active = GI50 up to about 1.1 µM and inactive = higher.

Legend:
Test in all cases: NCI-60 cell line screen, 48 h
A498 = tested on: A498
MCF7 = tested on: MCF7
NCI-H23 = tested on: NCI-H23
RPMI-8226 = tested on: RPMI-8226
SK-MEL-2 = tested on: SK-MEL-2
NCI-H522 = tested on: NCI-H522
SNB-75 = tested on: SNB-75
NCI-H460 = tested on: NCI-H460
NCI/ADR-RES = tested on: NCI/ADR-RES
786-0 = tested on: 786-0
MDA-MB-435 = tested on: MDA-MB-435
M14 = tested on: M14
K562 = tested on: K562
HCT-116 = tested on: HCT-116
HOP-92 = tested on: HOP-92
PC-3 = tested on: PC-3
LOX IMVI = tested on: LOX IMVI
UACC-257 = tested on: UACC-257
SNB-19 = tested on: SNB-19
Malme-3M = tested on: Malme-3M

Measured: GI50

COc1ccc(-n2c(=O)c3nc(S)[nH]c3n(-c3ccc(OC)cc3)c2=S)cc1
inactive: A498 > 100 µM | MCF7 > 100 µM | NCI-H23 > 100 µM | RPMI-8226 > 100 µM | SK-MEL-2 > 100 µM | NCI-H522 57.4 µM | SNB-75 > 100 µM | NCI-H460 > 100 µM | NCI/ADR-RES > 100 µM | 786-0 > 100 µM | MDA-MB-435 > 100 µM | M14 > 100 µM | K562 > 100 µM | HCT-116 > 100 µM | HOP-92 > 100 µM | PC-3 > 100 µM | LOX IMVI > 100 µM | UACC-257 > 100 µM

CC(=O)C1C(=O)C(C(C)=O)C2C3C=CC(C3)C12 (configuration not stated)
inactive: SNB-19 > 100 µM | A498 > 100 µM | MCF7 > 100 µM | NCI-H23 > 100 µM | RPMI-8226 > 100 µM | SK-MEL-2 > 100 µM | NCI-H522 > 100 µM | SNB-75 > 100 µM | NCI-H460 > 100 µM | NCI/ADR-RES > 100 µM | 786-0 > 100 µM | MDA-MB-435 > 100 µM | K562 > 100 µM | HCT-116 > 100 µM | HOP-92 > 100 µM | Malme-3M > 100 µM | PC-3 > 100 µM | LOX IMVI > 100 µM | UACC-257 > 100 µM

Cc1ccccc1-n1c(=O)nc2n(-c3ccc(C(C)(C)C)cc3)c3ccccc3cc-2c1=O
inactive: SNB-19 21.5 µM | A498 30.5 µM | MCF7 22.9 µM | NCI-H23 21.7 µM | RPMI-8226 24.2 µM | SK-MEL-2 16.7 µM | NCI-H522 21.7 µM | SNB-75 22.3 µM | NCI-H460 15.3 µM | NCI/ADR-RES 16.7 µM | 786-0 24.4 µM | MDA-MB-435 11.3 µM | M14 17.7 µM | K562 37.8 µM | HCT-116 15.5 µM | HOP-92 21.4 µM | PC-3 19.8 µM | LOX IMVI 15.6 µM | UACC-257 17.2 µM

O=C(CN1CCOCC1)CC(O)(C(F)(F)F)C(F)(F)F
inactive: SNB-19 65.9 µM | A498 > 100 µM | MCF7 > 100 µM | NCI-H23 33.5 µM | RPMI-8226 55.2 µM | SK-MEL-2 97.3 µM | NCI-H522 42 µM | SNB-75 38.6 µM | NCI/ADR-RES > 100 µM | 786-0 > 100 µM | MDA-MB-435 > 100 µM | M14 > 100 µM | K562 55.1 µM | HCT-116 44.9 µM | HOP-92 29.6 µM | Malme-3M > 100 µM | PC-3 32.1 µM | LOX IMVI 46 µM | UACC-257 > 100 µM

CC(=O)/C(=C\NC(N)=S)C(=O)Nc1ccccc1C
inactive: SNB-19 > 100 µM | A498 > 100 µM | MCF7 > 100 µM | NCI-H23 > 100 µM | RPMI-8226 > 100 µM | SK-MEL-2 > 100 µM | NCI-H522 > 100 µM | SNB-75 > 100 µM | NCI-H460 > 100 µM | NCI/ADR-RES > 100 µM | 786-0 > 100 µM | MDA-MB-435 > 100 µM | M14 > 100 µM | K562 > 100 µM | HCT-116 > 100 µM | HOP-92 > 100 µM | PC-3 > 100 µM | LOX IMVI > 100 µM | UACC-257 > 100 µM

COc1cc2ccc1OCc1cccc(n1)COc1ccc(cc1OC)/C=N\c1ccc(cc1)-c1ccc(cc1)/N=C\2
inactive: SNB-19 > 100 µM | A498 > 100 µM | MCF7 > 100 µM | NCI-H23 > 100 µM | SK-MEL-2 > 100 µM | NCI-H522 > 100 µM | SNB-75 > 100 µM | NCI-H460 > 100 µM | NCI/ADR-RES > 100 µM | 786-0 > 100 µM | MDA-MB-435 > 100 µM | M14 > 100 µM | K562 > 100 µM | HCT-116 > 100 µM | HOP-92 > 100 µM | Malme-3M > 100 µM | PC-3 > 100 µM | LOX IMVI > 100 µM | UACC-257 > 100 µM

O=c1c2cc(-c3ccccc3)cnc2sn1-c1ccc(Oc2ccccc2)cc1
inactive: SNB-19 19.2 µM | A498 25.3 µM | MCF7 52.5 µM | NCI-H23 61 µM | RPMI-8226 53.1 µM | SK-MEL-2 > 100 µM | NCI-H522 34.4 µM | SNB-75 32 µM | NCI-H460 > 100 µM | NCI/ADR-RES 27 µM | 786-0 17.3 µM | MDA-MB-435 41.1 µM | M14 46.3 µM | K562 > 100 µM | HCT-116 51.9 µM | HOP-92 30.7 µM | Malme-3M 92.5 µM | PC-3 20.4 µM | UACC-257 67 µM
